Experimental data reported in the supplement of paper PMC9663587.

What was measured:
[1] = compound: CN(C)C(=O)c1cc2cnc(Nc3ccc(N4CCNCC4)cn3)nc2n1C1CCCC1 [LEE011/Ribociclib]; test: increase in dead-cell fraction, 72 h; higher = more death;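 note: breast cancer cell lines in 384-well plates, stained with Hoechst plus LIVE/DEAD far red dye and imaged, cells above an LDR intensity threshold counted dead, Hoechst-negative corpses included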
[2] = compound: CN(C)C/C=C/C(=O)Nc1ccc(C(=O)N2CCC[C@@H](Nc3ncc(Cl)c(-c4c[nH]c5ccccc45)n3)C2)cc1 [THZ531]; test: as above
[3] = compound: T1, CN(C)C/C=C/C(=O)Nc1ccc(C(=O)Nc2cccc(Nc3ncc(Cl)c(-c4c[nH]c5ccccc45)n3)c2)cc1 [THZ1]; test: as above
[4] = compound: CN1CC[C@H](c2c(O)cc(O)c3c(=O)cc(-c4ccccc4Cl)oc23)[C@H](O)C1 [Flavopiridol]; test: as above
[5] = compound: CCOc1cc2ncc(C#N)c(Nc3ccc(OCc4ccccn4)c(Cl)c3)c2cc1NC(=O)/C=C/CN(C)C [Neratinib/HKI272]; test: GR value, 72 h; higher = faster growth (1 = untreated, <0 = killing);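 note: breast cancer and non-malignant breast epithelial lines, nine half-log doses, viable cells counted by Hoechst and LIVE/DEAD dye imaging versus time-zero plates and DMSO controls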
[6] = compound: T1, THZ1; test: as above

Cell Line: UACC893
- increase in dead-cell fraction ([1]; 0.001 µM): -0.0008
- increase in dead-cell fraction ([1]; 0.003162 µM): -0.0005
- increase in dead-cell fraction ([1]; 0.01 µM): 0.0034
- increase in dead-cell fraction ([1]; 0.03162 µM): 0.0015
- increase in dead-cell fraction ([1]; 0.1 µM): 0.0055
- increase in dead-cell fraction ([1]; 0.3162 µM): 0.0017
- increase in dead-cell fraction ([1]; 1 µM): 0.0062
- increase in dead-cell fraction ([1]; 3.162 µM): 0.0013
- increase in dead-cell fraction ([1]; 10 µM): 0.0077
- increase in dead-cell fraction ([2]; 0.0001 µM): -0.0016
- increase in dead-cell fraction ([2]; 0.0003162 µM): 0.0009
- increase in dead-cell fraction ([2]; 0.001 µM): 0.0027
- increase in dead-cell fraction ([2]; 0.003162 µM): 0.0008
- increase in dead-cell fraction ([2]; 0.01 µM): -0.0019
- increase in dead-cell fraction ([2]; 0.03162 µM): 0.0067
- increase in dead-cell fraction ([2]; 0.1 µM): 0.0859
- increase in dead-cell fraction ([2]; 0.3162 µM): 0.0937
- increase in dead-cell fraction ([2]; 1 µM): 0.109
- increase in dead-cell fraction ([3]; 0.0001 µM): -0.0022
- increase in dead-cell fraction ([3]; 0.0003162 µM): -0.0022
- increase in dead-cell fraction ([3]; 0.001 µM): 0.0023
- increase in dead-cell fraction ([3]; 0.003162 µM): -0.0026
- increase in dead-cell fraction ([3]; 0.01 µM): -0.0007
- increase in dead-cell fraction ([3]; 0.03162 µM): 0.0317
- increase in dead-cell fraction ([3]; 0.1 µM): 0.0774
- increase in dead-cell fraction ([3]; 0.3162 µM): 0.0967
- increase in dead-cell fraction ([3]; 1 µM): 0.134
- increase in dead-cell fraction ([4]; 0.0001 µM): -0.0013
- increase in dead-cell fraction ([4]; 0.0003162 µM): -0.0009
- increase in dead-cell fraction ([4]; 0.001 µM): 0.0052
- increase in dead-cell fraction ([4]; 0.003162 µM): -0.0042
- increase in dead-cell fraction ([4]; 0.01 µM): -0.0006
- increase in dead-cell fraction ([4]; 0.03162 µM): 0.0011
- increase in dead-cell fraction ([4]; 0.1 µM): 0.0012
- increase in dead-cell fraction ([4]; 0.3162 µM): 0.013
- increase in dead-cell fraction ([4]; 1 µM): 0.132
- GR value ([5]; 0.0003162 µM): 1.06 GR
- GR value ([5]; 0.001 µM): 0.922 GR
- GR value ([5]; 0.003162 µM): 0.372 GR
- GR value ([5]; 0.01 µM): -0.192 GR
- GR value ([5]; 0.03162 µM): -0.409 GR
- GR value ([5]; 0.1 µM): -0.604 GR
- GR value ([5]; 0.3162 µM): -0.688 GR
- GR value ([5]; 1 µM): -0.784 GR
- GR value ([5]; 3.162 µM): -0.908 GR
- GR value ([6]; 0.0001 µM): 0.991 GR
- GR value ([6]; 0.0003162 µM): 1.12 GR
- GR value ([6]; 0.001 µM): 1.07 GR
- GR value ([6]; 0.003162 µM): 0.882 GR
- GR value ([6]; 0.01 µM): 0.669 GR
- GR value ([6]; 0.03162 µM): 0.149 GR
- GR value ([6]; 0.1 µM): -0.241 GR
- GR value ([6]; 0.3162 µM): -0.397 GR
- GR value ([6]; 1 µM): -0.517 GR
